Results as given in patent US8961933B2, “Process for the preparation of aqueous solutions of hyperpolarized molecules” (Bracco Imaging S.p.A., priority 2008, dated 2015).

How the values were obtained:
Solubility in water = format: physicochemical; conditions: compared with alkyne A
Text: The symmetrical alkyne A, whose formula is reported below, was synthesized by transesterification of the acetylene bis-carboxylic acid bismethyl ester with diethyleneglycol monomethyl ether, in the presence of H2SO4 as catalyst.

[1] = Phase-transfer extraction of the hyperpolarized product into water: 13C signal enhancement and amount transferred; format: physicochemical
Procedure: After the field cycling application, the tube was quickly opened and 0.4 mL of degassed D2O were added; the tube was shaken vigorously for three seconds and then let stand for five seconds, during which phase separation occurred. The water solution was taken by a syringe and transferred into a tube for NMR acquisition.

SMILES | solubility in water (Solubility in water) | quantity transferred into the water phase ([1]; CDCl3/acetone-d6 (6:1) versus D2O, equal volumes) | transfer to the water phase ([1]; after hydrolysis with 0.25 M NaOH in D2O, CDCl3/acetone-d6 6:1)
COCCOCCOC(=O)/C=C\C(=O)OCCOCCOC [B] | higher than that of the alkyne A | about 10 % of the total | –
O=C(O)CCC(=O)O [succinic acid] | – | – | All the succinic acid was transferred to the water phase
